Experimental data published in US7932262B2 (Novartis AG, priority 2006, dated 2011).
Like-named read-outs stand apart in the source and are kept apart here.

Legend:
[1] = biological target: T1, PDK1 kinase (Homo sapiens, UniProt O15530); test: PDK1 Kinase Alpha Screen Assay; type: biochemical; conditions: read-out: PDK1 IC50
T1 sequence (O15530 1-556): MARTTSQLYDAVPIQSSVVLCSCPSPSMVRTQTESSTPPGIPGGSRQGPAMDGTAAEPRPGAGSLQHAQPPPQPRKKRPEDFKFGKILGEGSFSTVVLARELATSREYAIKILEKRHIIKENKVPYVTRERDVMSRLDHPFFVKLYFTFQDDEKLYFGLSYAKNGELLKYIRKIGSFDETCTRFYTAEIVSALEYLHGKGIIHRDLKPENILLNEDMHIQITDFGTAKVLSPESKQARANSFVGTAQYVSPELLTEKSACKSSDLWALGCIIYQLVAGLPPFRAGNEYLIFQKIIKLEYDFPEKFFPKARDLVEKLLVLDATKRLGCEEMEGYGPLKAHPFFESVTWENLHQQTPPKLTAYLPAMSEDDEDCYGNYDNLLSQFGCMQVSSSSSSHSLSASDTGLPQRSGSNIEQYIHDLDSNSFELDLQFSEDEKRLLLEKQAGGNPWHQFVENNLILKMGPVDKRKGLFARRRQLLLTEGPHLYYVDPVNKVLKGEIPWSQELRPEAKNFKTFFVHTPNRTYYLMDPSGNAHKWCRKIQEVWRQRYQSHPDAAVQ
Summary of the method: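 Kinase inhibition measured as loss of AlphaScreen signal from antibody recognition of phosphorylated biotin-PDK1-4 peptide. Reactions contain 10 uM ATP and 50 nM peptide, run 3-18 hours before EDTA quench and overnight bead development at room temperature.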

[2] = tested on: A2780 cells; test: Cell Proliferation Assay (Cell Titer Glo), A2780; type: cell-based; conditions: Homo sapiens, read-out: CPEC50 A2780
Summary of the method: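 Following a 3-day compound exposure (37° C., 5% CO2) of A2780 or PC3MM cells plated at 1000 per well, viability was measured by Cell Titer Glo luminescence in fresh medium, read 10 min after reagent addition.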

[3] = Cell Proliferation Assay, A2780
[4] = cell proliferation, A2780 cells
[5] = 72 h, A2780 cells, 3 days incubation

Compound | IC50 ([1]; PDK1 Kinase Alpha Screen Assay) | EC50 [2, 3] | EC50 [2, 4] | IC50 [1] | EC50 [2, 5]
NS(=O)(=O)c1ccc(Nc2ncc3cccc(OCC(=O)N4CCOCC4)c3n2)cc1 [Compound 518, 4-(8-(2-morpholino-2-oxoethoxy)quinazolin-2-ylamino)benzenesulfonamide] | 5 to 10 µM | 5 to 10 µM |  |  | 
CC(C)COc1cccc2cnc(Nc3ccc(S(N)(=O)=O)cc3)nc12 [Compound 310, 4-(8-isobutoxyquinazolin-2-ylamino)benzenesulfonamide] | < 5 µM | < 5 µM |  |  | 
NC(=O)c1ccc(-c2cc(F)cc3cnc(Nc4ccc(S(N)(=O)=O)cc4)nc23)cc1 [Compound 886, 4-(6-fluoro-2-(4-sulfamoylphenylamino)quinazolin-8-yl)benzamide] | < 5 µM |  | 5 to 10 µM |  | 
O=S(=O)(NC1CC1)c1cccc(Nc2ncc3cccc(OC4CCNCC4)c3n2)c1 [Compound 16, N-Cyclopropyl-3-[8-(piperidin-4-yloxy)-quinazolin-2-ylamino]-benzenesulfonamide] |  |  |  | < 5 µM | < 5 µM
NS(=O)(=O)c1ccc(Nc2ncc3cccc(-c4ccc(-c5ccn[nH]5)cc4)c3n2)cc1 [Compound 89, 4-{8-[4-(2H-Pyrazol-3-yl)-phenyl]-quinazolin-2-ylamino}-benzenesulfonamide] |  |  |  | < 5 µM | < 5 µM
CC(C)N1CCN(C(=O)c2ccc3cnc(Nc4ccc(S(N)(=O)=O)cc4)nc3c2)CC1 [Compound 118, 4-[7-(4-Isopropyl-piperazine-1-carbonyl)-quinazolin-2-ylamino]-benzenesulfonamide] |  |  |  | 10 to 25 µM | 5 to 10 µM
O=S(=O)(NCCN1CCCC1)c1cccc(Nc2ncc3cccc(OC4CCNCC4)c3n2)c1 [Compound 15, 3-[8-(Piperidin-4-yl-oxy)-quinazolin-2-ylamino]-N-(2-pyrrolidin-1-yl-ethyl)-benzenesulfonamide] |  |  |  | < 5 µM | 5 to 10 µM
NC(=O)c1ccc(Nc2ncc3cccc(OC4CCCC4)c3n2)cc1 [Compound 505, 4-(8-(cyclopentyloxy)quinazolin-2-ylamino)benzamide] | < 5 µM | < 5 µM |  |  | 
CN1CCN(C(=O)c2cccc3cnc(Nc4ccc(S(N)(=O)=O)cc4)nc23)CC1 [Compound 121, 4-[8-(4-Methyl-piperazine-1-carbonyl)-quinazolin-2-ylamino]-benzenesulfonamide] |  |  |  | < 5 µM | 5 to 10 µM
NC(=O)c1cccc(-c2cccc3cnc(Nc4ccc(S(N)(=O)=O)cc4)nc23)c1 [Compound 90, 3-[2-(4-Sulfamoyl-phenylamino)-quinazolin-8-yl]-benzamide] |  |  |  | < 5 µM | < 5 µM
CC(C)N1CC(Oc2cccc3cnc(Nc4ccc(S(N)(=O)=O)cc4)nc23)C1 [Compound 47, 4-[8-(1-Isopropyl-azetidin-3-yloxy)-quinazolin-2-ylamino]-benzenesulfonamide] |  |  |  | < 5 µM | < 5 µM
CC(C)Cn1cc(-c2ccc3cnc(Nc4ccc(S(N)(=O)=O)cc4)nc3c2)cn1 [Compound 849, 4-(7-(1-isobutyl-1H-pyrazol-4-yl)quinazolin-2-ylamino)benzenesulfonamide] | < 5 µM |  | < 5 µM |  | 
NS(=O)(=O)c1ccc(Nc2ncc3ccc(-c4ccc(NCCN5CCCC5)nc4)cc3n2)cc1 [Compound 878, 4-(7-(6-(2-(pyrrolidin-1-yl)ethylamino)pyridin-3-yl)quinazolin-2-ylamino)benzenesulfonamide] | < 5 µM |  | < 5 µM |  | 
NS(=O)(=O)c1ccc(Nc2ncc3cccc(Nc4ccc(F)cc4)c3n2)cc1 [Compound 873, 4-(8-(4-fluorophenylamino)quinazolin-2-ylamino)benzenesulfonamide] | < 5 µM |  | < 5 µM |  | 
Nc1ccc(-c2ccc3cnc(Nc4ccc(S(N)(=O)=O)cc4)nc3c2)cn1 [Compound 130, 4-[7-(6-Amino-pyridin-3-yl)-quinazolin-2-ylamino]-benzenesulfonamide] |  |  |  | < 5 µM | < 5 µM
NS(=O)(=O)c1ccc(Nc2ncc3ccc(Br)c(O)c3n2)cc1 [Compound 421, 4-(7-bromo-8-hydroxyquinazolin-2-ylamino)benzenesulfonamide] | 5 to 10 µM | < 5 µM |  |  | 
NS(=O)(=O)c1ccc(Nc2ncc3cccc(C(=O)NCCN4CCCC4)c3n2)cc1 [Compound 115, 2-(4-Sulfamoyl-phenylamino)-quinazoline-8-carboxylic acid (2-pyrrolidin-1-yl-ethyl)-amide] |  |  |  | 5 to 10 µM | < 5 µM
NC(=O)c1ccc(COc2cccc3cnc(Nc4ccc(S(N)(=O)=O)cc4)nc23)cc1 [Compound 628, 4-((2-(4-sulfamoylphenylamino)quinazolin-8-yloxy)methyl)benzamide] | < 5 µM | 5 to 10 µM |  |  | 
CN1CCN(Cc2cccc3cnc(Nc4ccc(S(N)(=O)=O)cc4)nc23)CC1 [Compound 871, 4-(8-((4-methylpiperazin-1-yl)methyl)quinazolin-2-ylamino)benzenesulfonamide] | < 5 µM |  | < 5 µM |  | 
NS(=O)(=O)c1ccc(Nc2ncc3ccc(OCCC4CCNCC4)cc3n2)cc1 [Compound 632, 4-(7-(2-(piperidin-4-yl)ethoxy)quinazolin-2-ylamino)benzenesulfonamide] | < 5 µM | < 5 µM |  |  | 
NS(=O)(=O)c1ccc(Nc2ncc3ccc(-c4cccnc4)c(OC4CCNCC4)c3n2)cc1 [Compound 853, 4-(8-(piperidin-4-yloxy)-7-(pyridin-3-yl)quinazolin-2-ylamino)benzenesulfonamide] | < 5 µM |  | < 5 µM |  | 
COCCNc1cc(-c2cccc3cnc(Nc4ccc(S(N)(=O)=O)cc4)nc23)ccn1 [Compound 100, 4-{8-[2-(2-Methoxy-ethylamino)-pyridin-4-yl]-quinazolin-2-ylamino}-benzenesulfonamide] |  |  |  | < 5 µM | < 5 µM
CN(C)[C@@H]1CCN(C(=O)c2cccc3cnc(Nc4ccc(S(N)(=O)=O)cc4)nc23)C1 [Compound 141, 4-[8-((R)-3-Dimethylamino-pyrrolidine-1-carbonyl)-quinazolin-2-ylamino]-benzenesulfonamide] |  |  |  | < 5 µM | 5 to 10 µM
CS(=O)(=O)c1cccc(-c2cccc3cnc(Nc4ccc(S(N)(=O)=O)cc4)nc23)c1 [Compound 91, 4-[8-(3-Methanesulfonyl-phenyl)-quinazolin-2-ylamino]-benzenesulfonamide] |  |  |  | < 5 µM | < 5 µM
Cn1cc(-c2ccc3cnc(Nc4ccc(S(N)(=O)=O)cc4)nc3c2OC2CCNCC2)cn1 [Compound 860, 4-(7-(1-methyl-1H-pyrazol-4-yl)-8-(piperidin-4-yloxy)quinazolin-2-ylamino)benzenesulfonamide] | < 5 µM |  | < 5 µM |  | 
COCCNC(=O)c1cccc2cnc(Nc3ccc(S(N)(=O)=O)cc3)nc12 [Compound 114, 2-(4-Sulfamoyl-phenylamino)-quinazoline-8-carboxylic acid (2-methoxy-ethyl)-amide] |  |  |  | 5 to 10 µM | < 5 µM
NC(=O)c1ccc(Nc2ncc3cccc(OC4CCNCC4)c3n2)cc1 [Compound 30, 4-[8-(Piperidin-4-yloxy)-quinazolin-2-ylamino]-benzamide] |  |  |  | < 5 µM | < 5 µM
NS(=O)(=O)c1ccc(Nc2ncc3cccc(-c4ccc5c(c4)OCO5)c3n2)cc1 [Compound 95, 4-(8-Benzo[1,3]dioxol-5-yl-quinazolin-2-ylamino)-benzenesulfonamide] |  |  |  | < 5 µM | < 5 µM
